Reference: BindingDB's records for doi:10.1124/jpet.106.101428 (Eli Lilly, 2006)

Key:
[1] = target: T1, Glutamate receptor ionotropic, kainate 5 (Homo sapiens, UniProt Q16478)
T1 sequence (Q16478 whole entry): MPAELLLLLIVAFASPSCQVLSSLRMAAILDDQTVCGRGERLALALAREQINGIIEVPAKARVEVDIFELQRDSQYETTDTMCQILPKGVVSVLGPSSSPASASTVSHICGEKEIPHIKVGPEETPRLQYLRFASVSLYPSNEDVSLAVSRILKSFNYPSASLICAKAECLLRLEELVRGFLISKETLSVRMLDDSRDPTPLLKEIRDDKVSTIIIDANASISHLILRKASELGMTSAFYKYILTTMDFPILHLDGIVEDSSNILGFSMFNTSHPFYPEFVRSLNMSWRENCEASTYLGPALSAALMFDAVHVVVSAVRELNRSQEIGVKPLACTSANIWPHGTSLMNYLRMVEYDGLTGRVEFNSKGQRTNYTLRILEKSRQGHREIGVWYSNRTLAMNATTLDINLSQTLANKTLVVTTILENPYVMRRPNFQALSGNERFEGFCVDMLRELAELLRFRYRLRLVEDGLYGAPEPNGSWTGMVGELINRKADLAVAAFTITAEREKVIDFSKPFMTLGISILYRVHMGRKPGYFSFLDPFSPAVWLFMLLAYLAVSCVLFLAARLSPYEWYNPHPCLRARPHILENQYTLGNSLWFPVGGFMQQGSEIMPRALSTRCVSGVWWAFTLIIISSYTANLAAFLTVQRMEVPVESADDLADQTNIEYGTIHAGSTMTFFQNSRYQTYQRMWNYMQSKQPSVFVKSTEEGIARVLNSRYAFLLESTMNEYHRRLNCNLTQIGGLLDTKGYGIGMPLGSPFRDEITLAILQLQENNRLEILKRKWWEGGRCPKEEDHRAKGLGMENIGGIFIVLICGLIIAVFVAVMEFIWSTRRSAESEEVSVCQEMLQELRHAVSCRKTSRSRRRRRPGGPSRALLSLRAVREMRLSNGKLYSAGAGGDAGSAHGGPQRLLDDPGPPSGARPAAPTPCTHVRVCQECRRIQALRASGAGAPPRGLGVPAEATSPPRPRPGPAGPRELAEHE

Glutamate receptor 2 = Glutamate receptor 2 (Homo sapiens, UniProt P42262)
Sequence of Glutamate receptor 2 (P42262 whole entry): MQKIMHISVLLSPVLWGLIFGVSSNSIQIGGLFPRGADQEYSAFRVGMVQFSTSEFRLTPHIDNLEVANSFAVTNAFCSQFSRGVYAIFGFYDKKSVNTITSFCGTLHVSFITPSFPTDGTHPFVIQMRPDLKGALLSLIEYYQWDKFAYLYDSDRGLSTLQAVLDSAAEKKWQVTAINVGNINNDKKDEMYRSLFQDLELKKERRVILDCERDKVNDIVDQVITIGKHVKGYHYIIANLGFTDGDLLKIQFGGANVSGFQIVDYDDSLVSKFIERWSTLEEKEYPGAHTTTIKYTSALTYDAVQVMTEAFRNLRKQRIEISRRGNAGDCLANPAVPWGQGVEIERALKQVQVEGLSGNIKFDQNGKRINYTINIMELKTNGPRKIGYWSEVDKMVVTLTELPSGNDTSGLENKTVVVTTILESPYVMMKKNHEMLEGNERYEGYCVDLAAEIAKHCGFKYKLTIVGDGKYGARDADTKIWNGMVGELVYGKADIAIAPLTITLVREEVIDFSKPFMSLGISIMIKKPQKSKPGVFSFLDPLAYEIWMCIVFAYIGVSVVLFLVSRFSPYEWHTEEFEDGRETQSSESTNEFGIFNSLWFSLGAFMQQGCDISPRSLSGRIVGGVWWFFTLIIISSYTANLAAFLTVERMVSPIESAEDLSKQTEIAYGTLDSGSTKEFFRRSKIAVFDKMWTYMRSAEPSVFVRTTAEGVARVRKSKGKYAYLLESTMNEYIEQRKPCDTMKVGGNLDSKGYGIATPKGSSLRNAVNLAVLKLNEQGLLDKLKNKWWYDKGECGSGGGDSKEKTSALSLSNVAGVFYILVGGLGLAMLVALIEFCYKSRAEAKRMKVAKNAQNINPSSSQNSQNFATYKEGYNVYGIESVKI

[2] = target: Glutamate receptor ionotropic, kainate 3 (Homo sapiens, UniProt Q13003)
Sequence of Glutamate receptor ionotropic, kainate 3 (Q13003 whole entry): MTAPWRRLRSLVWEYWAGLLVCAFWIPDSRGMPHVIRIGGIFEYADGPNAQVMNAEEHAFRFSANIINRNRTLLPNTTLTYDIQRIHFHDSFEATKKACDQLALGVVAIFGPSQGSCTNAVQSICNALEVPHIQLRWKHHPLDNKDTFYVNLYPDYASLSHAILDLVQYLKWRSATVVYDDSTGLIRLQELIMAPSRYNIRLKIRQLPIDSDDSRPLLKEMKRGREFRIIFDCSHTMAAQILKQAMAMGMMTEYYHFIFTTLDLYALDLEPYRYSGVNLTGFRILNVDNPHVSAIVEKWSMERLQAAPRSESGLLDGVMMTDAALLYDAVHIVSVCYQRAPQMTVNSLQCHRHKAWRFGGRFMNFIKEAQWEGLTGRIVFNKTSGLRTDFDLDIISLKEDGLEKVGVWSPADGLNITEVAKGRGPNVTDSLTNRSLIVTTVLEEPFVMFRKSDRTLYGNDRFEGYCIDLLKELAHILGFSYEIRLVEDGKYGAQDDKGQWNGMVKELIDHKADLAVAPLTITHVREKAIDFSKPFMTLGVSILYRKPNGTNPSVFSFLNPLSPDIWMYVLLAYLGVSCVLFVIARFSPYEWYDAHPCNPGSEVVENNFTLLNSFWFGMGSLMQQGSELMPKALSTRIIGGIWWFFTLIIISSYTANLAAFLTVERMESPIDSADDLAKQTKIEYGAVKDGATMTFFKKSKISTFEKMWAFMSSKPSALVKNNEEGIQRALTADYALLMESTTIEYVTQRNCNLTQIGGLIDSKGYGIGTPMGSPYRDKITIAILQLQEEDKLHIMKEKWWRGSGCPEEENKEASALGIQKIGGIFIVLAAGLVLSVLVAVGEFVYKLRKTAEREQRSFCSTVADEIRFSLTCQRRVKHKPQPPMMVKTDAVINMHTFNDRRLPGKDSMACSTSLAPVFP

Glutamate receptor 1 = Glutamate receptor 1 (Homo sapiens, UniProt P42261)
Sequence of Glutamate receptor 1 (P42261 whole entry): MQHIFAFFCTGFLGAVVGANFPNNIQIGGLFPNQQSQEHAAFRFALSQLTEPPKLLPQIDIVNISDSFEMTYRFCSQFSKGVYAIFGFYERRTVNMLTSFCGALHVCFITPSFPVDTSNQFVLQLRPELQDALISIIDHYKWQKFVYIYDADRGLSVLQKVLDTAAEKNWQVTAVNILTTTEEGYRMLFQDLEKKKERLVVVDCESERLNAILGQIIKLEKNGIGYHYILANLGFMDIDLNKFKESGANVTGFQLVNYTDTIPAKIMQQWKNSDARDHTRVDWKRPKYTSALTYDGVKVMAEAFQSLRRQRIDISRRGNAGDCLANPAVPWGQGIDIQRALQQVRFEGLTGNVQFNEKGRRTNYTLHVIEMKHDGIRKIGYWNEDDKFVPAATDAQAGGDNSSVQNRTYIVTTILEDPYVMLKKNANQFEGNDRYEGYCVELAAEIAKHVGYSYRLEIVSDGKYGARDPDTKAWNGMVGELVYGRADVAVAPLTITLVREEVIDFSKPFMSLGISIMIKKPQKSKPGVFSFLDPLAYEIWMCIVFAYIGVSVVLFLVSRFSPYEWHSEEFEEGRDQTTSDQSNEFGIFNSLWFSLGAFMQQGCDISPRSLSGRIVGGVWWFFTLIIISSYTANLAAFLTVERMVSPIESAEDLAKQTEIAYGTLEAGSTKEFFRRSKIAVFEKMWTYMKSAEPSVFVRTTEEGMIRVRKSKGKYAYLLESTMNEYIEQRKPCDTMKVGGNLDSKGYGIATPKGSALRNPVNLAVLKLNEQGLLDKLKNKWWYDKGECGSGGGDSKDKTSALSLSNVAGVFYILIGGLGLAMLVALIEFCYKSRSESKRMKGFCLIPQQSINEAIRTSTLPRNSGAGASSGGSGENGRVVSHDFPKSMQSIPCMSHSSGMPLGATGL

Glutamate receptor 4 = Glutamate receptor 4 (Homo sapiens, UniProt P48058)
Sequence of Glutamate receptor 4 (P48058 whole entry): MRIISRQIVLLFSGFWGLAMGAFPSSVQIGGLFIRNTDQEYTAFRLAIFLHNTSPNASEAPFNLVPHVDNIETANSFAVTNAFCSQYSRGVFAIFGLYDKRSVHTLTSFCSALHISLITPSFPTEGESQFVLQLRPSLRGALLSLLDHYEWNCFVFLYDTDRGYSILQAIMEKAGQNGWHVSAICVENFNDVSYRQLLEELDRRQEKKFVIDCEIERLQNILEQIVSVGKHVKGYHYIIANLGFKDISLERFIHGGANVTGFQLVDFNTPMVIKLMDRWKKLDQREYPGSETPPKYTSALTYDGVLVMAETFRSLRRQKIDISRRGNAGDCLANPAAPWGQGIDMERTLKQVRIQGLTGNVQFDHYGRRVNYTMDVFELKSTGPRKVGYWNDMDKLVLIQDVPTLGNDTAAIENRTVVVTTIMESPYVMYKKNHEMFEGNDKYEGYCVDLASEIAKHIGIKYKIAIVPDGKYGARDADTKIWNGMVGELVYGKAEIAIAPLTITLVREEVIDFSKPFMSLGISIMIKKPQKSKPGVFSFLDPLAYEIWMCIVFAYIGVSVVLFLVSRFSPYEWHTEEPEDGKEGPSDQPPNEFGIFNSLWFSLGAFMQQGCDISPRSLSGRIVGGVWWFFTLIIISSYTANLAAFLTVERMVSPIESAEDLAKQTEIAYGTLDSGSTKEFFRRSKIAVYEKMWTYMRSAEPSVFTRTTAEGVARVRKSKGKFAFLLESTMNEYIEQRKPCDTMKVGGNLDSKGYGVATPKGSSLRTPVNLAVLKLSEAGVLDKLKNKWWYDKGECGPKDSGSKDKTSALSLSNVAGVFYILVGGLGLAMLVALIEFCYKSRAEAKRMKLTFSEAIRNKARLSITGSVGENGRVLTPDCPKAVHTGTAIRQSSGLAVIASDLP

[3] = target: Glutamate receptor ionotropic, kainate 2 (Homo sapiens, UniProt Q13002)
Sequence of Glutamate receptor ionotropic, kainate 2 (Q13002 whole entry): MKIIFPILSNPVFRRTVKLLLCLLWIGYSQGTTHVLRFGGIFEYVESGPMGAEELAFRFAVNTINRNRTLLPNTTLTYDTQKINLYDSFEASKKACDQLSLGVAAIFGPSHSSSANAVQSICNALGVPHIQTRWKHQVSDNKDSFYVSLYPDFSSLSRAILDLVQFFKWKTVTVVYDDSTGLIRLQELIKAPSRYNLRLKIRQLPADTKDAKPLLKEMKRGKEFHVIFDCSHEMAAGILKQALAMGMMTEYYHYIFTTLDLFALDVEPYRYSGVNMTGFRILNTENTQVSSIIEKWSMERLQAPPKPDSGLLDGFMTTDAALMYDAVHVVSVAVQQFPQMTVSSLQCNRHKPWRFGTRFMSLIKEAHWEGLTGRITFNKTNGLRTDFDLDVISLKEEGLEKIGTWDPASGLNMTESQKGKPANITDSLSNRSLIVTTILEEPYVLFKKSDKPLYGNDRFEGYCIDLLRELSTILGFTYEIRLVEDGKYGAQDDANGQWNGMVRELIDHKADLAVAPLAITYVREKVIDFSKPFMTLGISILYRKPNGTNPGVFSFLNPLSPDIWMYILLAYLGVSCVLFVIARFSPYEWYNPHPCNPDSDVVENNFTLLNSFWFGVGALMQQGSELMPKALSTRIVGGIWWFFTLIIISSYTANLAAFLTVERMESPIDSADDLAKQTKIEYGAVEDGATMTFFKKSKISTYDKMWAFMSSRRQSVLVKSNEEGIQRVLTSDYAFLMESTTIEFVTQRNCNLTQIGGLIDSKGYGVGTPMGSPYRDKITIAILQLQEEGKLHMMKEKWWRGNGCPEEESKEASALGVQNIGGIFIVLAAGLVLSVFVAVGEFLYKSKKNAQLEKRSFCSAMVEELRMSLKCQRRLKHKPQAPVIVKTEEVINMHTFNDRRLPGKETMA

Row | Structure (SMILES) | Ki [1] [µM] | Ki (Glutamate receptor 2) [µM] | Ki [2] [µM] | Ki (Glutamate receptor 1) [µM] | Ki (Glutamate receptor 4) [µM] | Ki [3] [µM]
1 | O=C(O)[C@@H]1C[C@H]2C[C@@H](Nc3ccccc3-c3nnn[nH]3)CC[C@H]2CN1 [LY 457691] | 1.55 |  |  |  |  | 
2 | CCC(CC)COC(=O)[C@@H]1C[C@H]2C[C@@H](Nc3ccccc3-c3nnn[nH]3)CC[C@H]2CN1 [LY-525327] | > 10 | > 10 |  |  |  | 
3 | O=C(O)c1ccc(C[C@H]2CC[C@H]3CN[C@H](C(=O)O)C[C@H]3C2)cc1 [LY 382884] | 4 | > 10 | > 10 | > 10 | > 10 | > 10
4 | O=C(O)[C@@H]1C[C@H]2C[C@@H](Oc3ccccc3-c3nnn[nH]3)CC[C@H]2CN1 [LY-458545] | 1.69 |  |  |  |  | 
5 | O=C(O)[C@@H]1C[C@H]2CC(COCc3nnn[nH]3)CC[C@H]2CN1 (some centres undefined) [LY-294486] | 3.06 | > 10 |  |  |  | 
6 | O=C(O)[C@@H]1C[C@H]2C[C@@H](CS(=O)(=O)c3nnc[nH]3)CC[C@H]2CN1 [LY-302679] | 3.41 |  |  |  |  | 
7 | O=C(O)C1CC(F)(F)CN1C[C@H]1CC[C@H]2CN[C@H](C(=O)O)C[C@H]2C1 (some centres undefined) [LY-466195] | 0.05 | > 10 |  | > 10 | > 10 | > 10
8 | O=C(O)[C@@H]1C[C@H]2C[C@@H](CCc3nn[nH]n3)CC[C@H]2CN1 | 4.2 |  | > 10 |  | > 10 | > 10
9 | CCC(C)OC(=O)[C@@H]1C[C@H]2C[C@@H](Oc3ccccc3-c3nnn[nH]3)CC[C@H]2CN1 (some centres undefined) [LY-467711] | 7.4 | > 10 |  |  |  | 
